# Laboratory results reported in US5573772A, “Methods for protecting tissues and organs from ischemic damage” (priority 1994, dated 1996).
# Entries after “also recorded” stand apart in the source; their conditions may differ.
# Tests used:
# [1] = tested on: isolated rabbit hearts; test: Hemodynamic responses (heart rate, coronary flow, LVDP, AV conduction) in isolated perfused rabbit hearts, Example 1; parameters: species or system rabbit (New Zealand white); conditions: for Hemodynamics, treatment alone: SPT or DPCPX alone
# Procedure: These solutions were then diluted in Krebs buffer to the final concentration just before the experiments started. New Zealand white rabbits of either sex, between 1.4-2.4 kg, were anesthetized with intravenous sodium pentobarbital (30 mg/kg). The neck was opened and a tracheotomy was performed. The rabbits were ventilated with 100% oxygen via a positive pressure respirator (MD industries, Mobile, Ala.). Ventilation rate was 30-35 breaths per minute, and tidal volume was approximately 15 ml. A left thoracotomy was performed in the fourth intercostal space and pericardium was opened to expose the heart. A 2-0 silk suture with an RB taper needle was passed around a branch of the left coronary artery, and the end of the silk were threaded through a small vinyl tube to form a snare. The heads were quickly excised and mounted on a Langendorff apparatus and perfused at constant pressure with Krebs buffer containing (in mM) 118.5 NaCl, 4.7 KCl, 1.2 MgSO4, 1.2 K2 PO4, 24.3 NaHCO3, 2.5 CaCl2 and 10 glucose. […] The temperature of the perfusate was maintained at 37° C. The perfusion pressure was kept at 75 mm Hg. Pacing electrodes were placed on the right atrium and all hearts were paced at 200 beats/minute with pulses of 5 volts and 4 msec duration to keep the heart rate constant. A fluid-filled latex balloon connected to a transducer via PE240 tubing was inserted into the left ventricle. Balloon volume was adjusted to set the left ventricular diastolic pressure at 10 mm Hg at the beginning of the experiment. Total coronary artery flow was measured by timed collection of buffer from the chamber into a graduated cylinder. Regional ischemia was effected by pulling the snare tight and clamping the tube with a hemostat. Global ischemia was performed by clamping the inflow tubing of the Langendorff apparatus. Reperfusion was achieved by releasing the restriction. All hearts were allowed to equilibrate for 20 minutes before the experiments were started. Heart rate (HR), coronary flow (CF) and left ventricular developed pressure (LVDP) were recorded at the point just before and at the end of each treatment with the pacing momentarily turned off. The animals were divided into 10 groups. The hearts in all groups were subjected to 30 minutes of coronary branch occlusion followed by 120 minutes of reperfusion. Control group (CON, n=10) only experienced the above-mentioned 30 minutes of regional ischemia while the preconditioned group (PC, n=12) received an additional 5 minutes of global ischemia plus 10 minutes of reperfusion prior to the 30 minute occlusion. In the adenosine group (ADO, n=6) and the APNEA group (APNEA, n=5), the hearts were exposed to 10 uM adenosine and 50 nM APNEA respectively, for 5 minutes as a substitute for ischemic preconditioning. The drug was allowed to washout for 10 minutes before the 30 minute ischemia was started. In groups receiving SPT, the blocker was included in the perfusate for 15 minutes at 100 uM starting 5 minutes before the exposure of ADO (ADO-SPT group, n=6) or APNEA (APNEA-SPT group, n=5) or 5 minutes before and after 5 minutes of preconditioning ischemia (PC-SPT group, n=5). […] All results are expressed as group mean±SEM. The differences among groups was determined by a one-way analysis of variance with a Newman-Keuls post hoc test. A value of p<0.05 was considered to be significant. In order to ensure that the adenosinergic agents were active at the concentrations employed, hemodynamic responses were measured in a separate group of animals who experienced similar surgery described above except the coronary snare was not installed and therefore the second group of animals were not exposed to ischemia. The hearts were quickly excised and mounted on the Langendorff apparatus and perfused with Krebs buffer. The depressant effect of adenosine on atrioventricular (AV) conduction time was measured at a constant rate of atrial pacing, as an index of A 1-mediated activity. […]
# [2] = tested on: isolated rabbit hearts; test: Dose-response of APNEA on infarct size in isolated rabbit hearts, Example 4 (Table A)
# Procedure: New Zealand white rabbits of either sex, between 1.4-2.4 kg, were anesthetized with intravenous sodium pentobarbital (30 mg/kg). The neck was opened and a tracheotomy was performed. The rabbits were ventilated with 100% oxygen via a positive pressure respirator (MD industries, Mobile, Ala.). Ventilation rate was 30-35 breaths per minute, and tidal volume was approximately 15 ml. A left thoracotomy was performed in the fourth intercostal space and pericardium was opened to expose the heart. A 2-0 silk suture with an RB taper needle was passed around a branch of the left coronary artery, and the end of the silk were threaded through a small vinyl tube to form a snare. The heads were quickly excised and mounted on a Langendorff apparatus and perfused at constant pressure with Krebs buffer containing (in mM) 118.5 NaCl, 4.7 KCl, 1.2 MgSO4, 1.2 K2 PO4, 24.3 NaHCO3, 2.5 CaCl2 and 10 glucose. […] The temperature of the perfusate was maintained at 37° C. The perfusion pressure was kept at 75 mm Hg. Pacing electrodes were placed on the right atrium and all hearts were paced at 200 beats/minute with pulses of 5 volts and 4 msec duration to keep the heart rate constant. A fluid-filled latex balloon connected to a transducer via PE240 tubing was inserted into the left ventricle. Balloon volume was adjusted to set the left ventricular diastolic pressure at 10 mm Hg at the beginning of the experiment. Total coronary artery flow was measured by timed collection of buffer from the chamber into a graduated cylinder. Regional ischemia was effected by pulling the snare tight and clamping the tube with a hemostat. Global ischemia was performed by clamping the inflow tubing of the Langendorff apparatus. Reperfusion was achieved by releasing the restriction. All hearts were allowed to equilibrate for 20 minutes before the experiments were started. Heart rate (HR), coronary flow (CF) and left ventricular developed pressure (LVDP) were recorded at the point just before and at the end of each treatment with the pacing momentarily turned off.
# For the group to be exposed to ischemia, the silk suture under the coronary branch was tightly tied to occlude the artery at the end of each experiment, and a 0.5% suspension of fluorescent particles (1-10 um diameter from Duke Scientific Corp., Palo Alto, Calif.) were infused into the perfusate to mark the risk zone as the non-fluorescent tissue. The hearts were removed from the Langendorff apparatus, weighed and then frozen. The hearts were cut into 2 mm transverse slices. The slices were thawed and incubated in 1% triphenyl tetrazolium chloride (TTC) in pH 7.4 buffer for 20 minutes at 37° C. TTC reacts with NADH and dehydrogenase enzymes and stains all tissue still having them to a deep red color. […] After staining, the area of infarcted tissue (TTC negative tissue) and the risk zone (area lacking fluorescence under ultraviolet light) in each slice were traced. The area of infarct and risk zone were determined by planimetry of the tracing. The volume of infarcted myocardium and myocardium at risk was then calculated by multiplying the planimetered areas by the slice thickness.
# In this study, applicants examined the effects of varying the dosage of APNEA on myocardial infarct size in Langendorff buffer-perfused rabbit hearts subject to 30 minutes of regional ischemia and 2 hours reperfusion. The methods utilized in this example are identical to those described in Example 1.
# Six groups of hearts were studied: control untreated hearts (n=10); APNEA 0.5 nM (n=6); APNEA 5 nM (n=6); APNEA 50 nM (n=6); APNEA 500 nM (n=6); and APNEA 500 nM+DPCPX 200 nM.(n=6) In all cases, APNEA (0.5-500 nM) was infused for 5 minutes, beginning 15 minutes prior to 30 minutes of ischemia. The regional ischemia was produced by occlusion of the coronary artery, followed by 120 minutes of reperfusion.
smiles,measurement,setting,value
"Nc1ncnc2c1ncn2[C@@H]1O[C@H](CO)[C@@H](O)[C@H]1O [ADO, Adenosine]",HR and CF effects of ADO after washout,[1]; 10 minutes of washout,completely disappeared
same,Coronary flow (CF) after infusion,"[1]; ADO 10 uM, 5 minutes, increased from 7.6±0.6 ml/g/min",10.3 ± 0.8 mL/g/min
same,Heart rate (HR) after infusion,"[1]; ADO 10 uM, 5 minutes, significantly decreased from 176±8 beats/min",149±6 beats/minutes
"CCCn1c(=O)c2[nH]c(C3CCCC3)nc2n(CCC)c1=O [DPCPX, 8-cyclopentyl-1,3-dipropylxanthine]",Blockade of APNEA's infarct size reduction,[2]; DPCPX 200 nM + APNEA 500 nM,not blocked
same,Blockade of adenosine's effect on heart rate,[1]; DPCPX 200 nM vs ADO,eliminated the decrease in HR; also recorded: entirely blocked; also recorded: completely blocked
same,Effect on increase in CF from ADO infusion,[1]; DPCPX 200 nM vs ADO,did not affect the increase in CF
same,"Hemodynamics, treatment alone",[1],only slightly affected
"Cn1c(=O)c2[nH]c(-c3ccc(S(=O)(=O)O)cc3)nc2n(C)c1=O [SPT, 8-(p-Sulfophenyl)-theophylline]",Blockade of CF increase from ADO infusion,[1]; SPT 100 uM vs ADO,abolished
same,Blockade of HR decrease from ADO infusion,[1]; SPT 100 uM vs ADO,abolished
same,"Hemodynamics, treatment alone",[1],only slightly affected
"Nc1ccc(CCNc2ncnc3c2ncn3[C@@H]2O[C@H](CO)[C@@H](O)[C@H]2O)cc1 [APNEA, N^6-(2-(4-aminophenyl)ethyl) adenosine]",Effect on infarct size compared to untreated control,[2]; APNEA 0.5 nM,no effect on infarct size
same,Infarct Area,[2]; APNEA 5 nM,14 ± 3 % of Risk
same,Infarct Area,[2]; APNEA 50 nM,14 ± 3 % of Risk
same,Infarct Area,[2]; APNEA 500 nM,8 ± 1 % of Risk
same,Infarct Area,[2]; APNEA 500 nM + DPCPX 200 nM,15 ± 5 % of Risk
same,Effect on infarct size,"[2]; APNEA 5, 50, and 500 nM",reduced infarct size
same,Infarct Area,"[2]; APNEA .5 nM, control 24 ± 1",22 ± 5 % of Risk
same,"Alteration of HR, CF or LVDP",[1]; APNEA 50 nM,"did not significantly alter HR, CF or LVDP"
same,Activation of A1 or A2 adenosine receptors,"[1]; APNEA 50 nM, inferred from hemodynamics",neither the A1 nor A2 adenosine receptors are activated
